Biological target: T1, human TREM2 (Homo sapiens, UniProt Q9NZC2)
T1 construct: expressed in transfected cells; host or cells: HEK293T
Assay: TREM2 agonist potency by cellular phosphorylation of Syk (AlphaLisa) in HEK293T-hTREM2 cells
Format: cell-based
Method in brief: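 Agonist EC50 from a variable-slope four-parameter fit of % activation, based on AlphaLisa phospho-Syk levels in lysates. Cells: HEK293T-hTREM2 (with DAP12), treated 45 min at room temperature with compound in assay buffer.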

[1] = HEK293 cells expressing human TREM2 and DAP12, Table D-2
[2] = HEK293 cells expressing human TREM2 and DAP12, Table D

T1 sequence (Q9NZC2 19-230): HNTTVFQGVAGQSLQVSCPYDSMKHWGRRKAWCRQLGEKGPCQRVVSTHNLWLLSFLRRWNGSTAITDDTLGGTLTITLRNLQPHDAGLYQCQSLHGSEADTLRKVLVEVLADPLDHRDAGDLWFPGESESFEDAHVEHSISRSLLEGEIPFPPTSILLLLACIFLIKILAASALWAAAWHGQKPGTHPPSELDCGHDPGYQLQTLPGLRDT
T1 sequence (O43914 22-113 partner): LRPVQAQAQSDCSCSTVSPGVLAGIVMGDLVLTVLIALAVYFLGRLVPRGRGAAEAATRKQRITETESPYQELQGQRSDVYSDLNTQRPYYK

Compound	EC50 [1] [µM]	EC50 [2] [µM]
Cc1cc2c(C3CCC(C(F)F)CC3)nc(N3C[C@@H](C)O[C@@H](c4cnn(C5CC5)c4)C3)nc2nc1C (stereo partly drawn) [Example I-1328, (2S,6R)-2-(1-cyclopropylpyrazol-4-yl)-4-[4-[4-(difluoromethyl)cyclohexyl]-6,7-dimethyl-pyrido[2,3-d]pyrimidin-2-yl]-6-methyl-morpholine]	< 0.05	–
Cc1nc2nc(N3C[C@@H](C)O[C@@H](c4cnn(C5CC5)c4)C3)cc(C#CC3CC3)c2nc1C [Example I-1104, (2S,6R)-4-[8-(2-cyclopropylethynyl)-2,3-dimethyl-pyrido[2,3-b]pyrazin-6-yl]-2-(1-cyclopropylpyrazol-4-yl)-6-methyl-morpholine]	0.5 to 3	–
Cc1nc2nc([C@H]3CCO[C@@H](c4cnn(C5CC(F)C5)c4)C3)nc(C34CC(C(F)(F)F)(C3)C4)c2nc1C (stereo in doubt) [Example 135, 2-((2R,4S)-2-(1-(3-fluorocyclobutyl)-1H-pyrazol-4-yl)tetrahydro-2H-pyran-4-yl)-6,7-dimethyl-4-(3-(trifluoromethyl)bicyclo[1.1.1]pentan-1-yl)pteridine]	–	0.05 to 0.5
COc1cccc([C@@H]2C[C@H](c3nc(C45CC(C(F)(F)F)(C4)C5)c4nc(C)c(C)nc4n3)CCO2)n1 [Example 145, 2-[ (2S,4R)-2-(6-methoxy-2-pyridyl)tetrahydropyran-4-yl] - 6,7-dimethyl-4-[3-(trifluoromethyl)-1-bicyclo[1.1.1]pentanyl]pteridine]	–	0.5 to 3
Cc1nc2cc([C@H]3CCO[C@@H](c4cnn(C5CC5)c4)C3)nc(-c3ccc(F)cc3F)c2nc1CO [Example I-1119, (7-((2R,4S)-2-(1-cyclopropyl-1H-pyrazol-4-yl)tetrahydro-2H-pyran-4-yl)-5-(2,4-difluorophenyl)-2-methylpyrido[3,4-b]pyrazin-3-yl)methanol]	0.05 to 0.5	–
